# According to patent publication US10253039B2, “Inhibitors of bacterial DNA gyrase with efficacy against gram-negative bacteria” (priority 2014, dated 2019):
# Where two headings read alike, the source gives them in different places.
# What was measured:
# [1] = test system: E. coli BW25113 ΔtolC cipR isolate GyrA Ser83Leu; experiment: MIC against ciprofloxacin-resistant mutant; conditions: Escherichia coli, BW25113
# E. coli BW25113 ΔtolC = experiment: MIC, microdilution in 96-well plates; conditions: Escherichia coli, BW25113, E. coli BW25113 ΔtolC (parent strain)
# [2] = test system: E. coli BW25113 ΔtolC gyrR isolate GyrB Thr508Met; experiment: MIC against gyramide-resistant mutant; conditions: Escherichia coli, BW25113
# [3] = test system: E. coli BW25113 ΔtolC gyrR isolate GyrA Ser97Pro; experiment: MIC against gyramide-resistant mutant; conditions: Escherichia coli, BW25113
# [4] = test system: E. coli BW25113 ΔtolC cipR isolate GyrB Ser464Phe; experiment: MIC against ciprofloxacin-resistant mutant; conditions: Escherichia coli, BW25113
# [5] = test system: E. coli BW25113 ΔtolC gyrR isolate GyrA His45Tyr; experiment: MIC against gyramide-resistant mutant; conditions: Escherichia coli, BW25113
# [6] = test system: E. coli BW25113 ΔtolC gyrR isolate GyrA Pro35Thr; experiment: MIC against gyramide-resistant mutant; conditions: Escherichia coli, BW25113
# [7] = test system: E. coli BW25113 ΔtolC gyrR isolate GyrA Phe96Leu; experiment: MIC against gyramide-resistant mutant; conditions: Escherichia coli, BW25113
# [8] = test system: E. coli BW25113 ΔtolC cipR isolate GyrA Asp87Tyr; experiment: MIC against ciprofloxacin-resistant mutant; conditions: Escherichia coli, BW25113
# [9] = test system: E. coli BW25113 ΔtolC cipR isolate GyrA Asp87Gly; experiment: MIC against ciprofloxacin-resistant mutant; conditions: Escherichia coli, BW25113
# Acinetobacter baumannii = experiment: MIC, microdilution in 96-well plates; format: cell-based; conditions: Table 7, separate set of experiments, read-out: MIC
# How it was run: (§1)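 Each of the 20 strains is tested in LB at a 1:10000 dilution of a growing subculture. Compound is titrated 2-fold in three replicates; a DMSO column serves as vehicle control. After shaking incubation at 37° C. for 16-18 hours, MIC is taken as the lowest clear concentration.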
# Enterobacter aerogenes = experiment: MIC, microdilution in 96-well plates; format: cell-based; conditions: Klebsiella aerogenes, Enterobacter aerogenes; Table 7, separate set of experiments; read-out: MIC
# How it was run: as §1
# Pseudomonas aeruginosa = experiment: MIC, microdilution in 96-well plates; format: cell-based; conditions: Table 7, separate set of experiments, read-out: MIC
# How it was run: as §1
# Edwardsiella tarda = experiment: MIC, microdilution in 96-well plates; format: cell-based; conditions: read-out: MIC
# How it was run: as §1
# E. coli BW25113 = experiment: MIC, microdilution in 96-well plates; format: cell-based; conditions: Escherichia coli, read-out: MIC
# How it was run: as §1
# Shigella flexneri = experiment: MIC, 20-strain panel; format: cell-based
# How it was run: as §1
# Enterococcus faecalis = experiment: MIC, 20-strain panel; format: cell-based; conditions: Table 7, separate set of experiments
# How it was run: as §1
# Bacillus cereus = experiment: MIC, 20-strain panel; format: cell-based
# How it was run: as §1
# Streptococcus agalactiae = experiment: MIC, 20-strain panel; format: cell-based; conditions: read-out: MIC
# How it was run: as §1
# [10] = test system: Staphylococcus epidermidis; experiment: MIC, 20-strain panel; format: cell-based; conditions: read-out: MIC
# How it was run: as §1
# [11] = test system: Staphylococcus aureus subsp. aureus; experiment: MIC, 20-strain panel; format: cell-based; conditions: read-out: MIC
# How it was run: as §1
# Bacillus subtilis 168 = experiment: MIC, 20-strain panel; format: cell-based
# How it was run: as §1
# [12] = test system: Klebsiella pneumoniae subsp. pneumoniae; experiment: MIC, 20-strain panel; format: cell-based; conditions: read-out: MIC
# How it was run: as §1
# Enterococcus faecium = experiment: MIC, 20-strain panel; format: cell-based
# How it was run: as §1
# E. coli JW5503 (deltolC) = experiment: MIC, 20-strain panel; format: cell-based; conditions: Escherichia coli
# How it was run: as §1
# [13] = test system: Morganella morganii subsp. morganii; experiment: MIC, 20-strain panel; format: cell-based; conditions: Morganella morganii subsp. morganii; Table 7, separate set of experiments; read-out: MIC
# How it was run: as §1
# [14] = test system: Staphylococcus saprophyticus subsp. saprophyticus; experiment: MIC, 20-strain panel; format: cell-based; conditions: read-out: MIC
# How it was run: as §1
# [15] = test system: Salmonella enterica subsp. enterica typhimurium; experiment: MIC, 20-strain panel; format: cell-based
# How it was run: as §1
# Streptococcus pyogenes = experiment: MIC, 20-strain panel; format: cell-based; conditions: read-out: MIC
# How it was run: as §1
# E. coli MG1655 = experiment: MIC, 20-strain panel; format: cell-based; conditions: Escherichia coli, read-out: MIC
# How it was run: as §1
# [16] = Table 7, separate set of experiments
# [17] = 20-strain screen of Table 6, read-out: MIC
structure (smiles),measurement,setting,value
"O=C(O)c1cn(C2CC2)c2cc(N3CCNCC3)c(F)cc2c1=O [Ciprofloxacin, ciprofloxacin]",MIC,[1],0.2 µM
same,MIC,E. coli BW25113 ΔtolC; Table 4,0.005 µM
same,MIC,E. coli BW25113 ΔtolC; Table 5,0.00625 µM
same,MIC,[2],0.01 µM
same,MIC,[3],0.005 µM
same,MIC,[4],0.05 µM
same,MIC,[5],0.01 µM
same,MIC,[6],0.005 µM
same,MIC,[7],0.01 µM
same,MIC,[8],0.1 µM
same,MIC,[9],0.05 µM
Cc1ccc(C(F)(F)F)cc1S(=O)(=O)N[C@@H]1CCN(Cc2ccc(OC3CC3)cc2)C1 [Compound 91],MIC,Acinetobacter baumannii,> 16 µg/mL
same,MIC,Enterobacter aerogenes,> 16 µg/mL
same,MIC,Pseudomonas aeruginosa,> 16 µg/mL
same,MIC,Edwardsiella tarda; D: Edwardsiella tarda,8 µg/mL
same,MIC,Edwardsiella tarda; [16],8 µg/mL
same,MIC,"E. coli BW25113; BW25113, B: E. coli BW25113",8 µg/mL
same,MIC,"E. coli BW25113; BW25113, E. coli BW25113, Table 7, separate set of experiments",8 µg/mL
same,MIC,Shigella flexneri; G: Shigella flexneri,8 µg/mL
same,MIC,Shigella flexneri; [16],4 µg/mL
same,MIC,Enterococcus faecalis,16 µg/mL
same,MIC,Bacillus cereus; [17],8 µg/mL
same,MIC,Bacillus cereus; [16],8 µg/mL
same,MIC,Streptococcus agalactiae; K: Streptococcus agalactiae,8 µg/mL
same,MIC,Streptococcus agalactiae; [16],8 µg/mL
same,MIC,[10]; J: Staphylococcus epidermidis,2 µg/mL
same,MIC,[10]; [16],8 µg/mL
same,MIC,[11]; H: Staphylococcus aureus subsp. aureus,4 µg/mL
same,MIC,"[11]; Staphylococcus aureus subsp. aureus, Table 7, separate set of experiments",8 µg/mL
same,MIC,Bacillus subtilis 168; [17],8 µg/mL
same,MIC,Bacillus subtilis 168; [16],8 µg/mL
same,MIC,[12]; E: Klebsiella pneumoniae subsp. pneumoniae,> 8 µg/mL
same,MIC,"[12]; Klebsiella pneumoniae subsp. pneumoniae, Table 7, separate set of experiments",> 16 µg/mL
same,MIC,Enterococcus faecium; [17],8 µg/mL
same,MIC,Enterococcus faecium; [16],8 µg/mL
same,MIC,E. coli JW5503 (deltolC); C: E. coli JW5503 (deltolC),< 0.0625 µg/mL
same,MIC,"E. coli JW5503 (deltolC); E. coli JW5503 (deltolC), Table 7, separate set of experiments",< 0.0078 µg/mL
same,MIC,[13],> 16 µg/mL
same,MIC,[14]; I: Staphylococcus saprophyticus subsp. saprophyticus,8 µg/mL
same,MIC,"[14]; Staphylococcus saprophyticus subsp. saprophyticus, Table 7, separate set of experiments",8 µg/mL
same,MIC,[15]; F: Salmonella enterica subsp. enterica Typhimurium,4 µg/mL
same,MIC,"[15]; Salmonella enterica subsp. enterica typhimurium, Table 7, separate set of experiments",4 µg/mL
same,MIC,Streptococcus pyogenes; L: Streptococcus pyogenes,4 µg/mL
same,MIC,Streptococcus pyogenes; [16],4 µg/mL
same,MIC,"E. coli MG1655; MG1655, A: E. coli MG1655",4 µg/mL
same,MIC,"E. coli MG1655; MG1655, E. coli MG1655, Table 7, separate set of experiments",8 µg/mL
